Measured values taken from ChEMBL document CHEMBL1150954, “Isolation and synthesis of an alpha-malamic acid derivative from Justicia ghiesbreghtiana” (J Nat Prod, 1998).
Activity calls are given as the source filed them. The rule behind the calls is not given here.

System: Mycobacterium tuberculosis
Experiment: Antibacterial activity against Mycobacterium tuberculosis
Assay type: functional, organism-based

COc1ccc(NC(=O)[C@@H](O)CC(=O)O)cc1OC
Activity: inactive
